Earlier results on one molecule are cited in paper PMC8617944, “Preclinical Pharmacokinetics and Acute Toxicity in Rats of 5-{[(2E)-3-Bromo-3-carboxyprop-2-enoyl]amino}-2-hydroxybenzoic Acid: A Novel 5-Aminosalicylic Acid Derivative with Potent Anti-Inflammatory Activity” (Molecules, 2021).

Each structure is given as a SMILES string.

One may read the LD50 as the dose expected to kill half of the subjects tested.

On the set-up of series [1]: method as in ref 32, 33 = [32]; doi:10.1016/j.arabjc.2016.12.026; 32. Cabrera Pérez L.C. Gutiérrez Sánchez M. Mendieta Wejebe J.E. Hernández Rodríguez M. Fragoso Vázquez M.J. Salazar J.R. Correa Basurto J. Padilla Martínez I.I. Rosales Hernández M.C. Novel 5-aminosa || [33]; 33. Correa Basurto J. Rosales Hernández M.C. Mendieta Wejebe J.E. Trujillo Ferrara J.G. Padilla Martínez I.I. Ramírez Durán L.A. Alemán González Duhart D. Síntesis de un derivado del ácido 5-aminosali. The conditions noted are these: 0.408 mM; cited from earlier work.

In the next series the test system is rats. The conditions noted are these: rat, in vivo, po; cited from earlier work.

For `Nc1ccc(O)c(C(=O)O)c1` [Compound 5-ASA, 5-aminosalicylic acid], the “reduction of the free radical DPPH” value in series [1] was “about 85%”. Moreover, the median lethal dose (LD50) with rats is reported as 2800 mg/kg.
